Literature values in US20230372318A1, “METHODS FOR TREATING A SUBJECT HAVING MULTIPLE SYSTEM ATROPHY” (Theravance Biopharma R&D IP, LLC, priority 2022, published 2023).
Where two headings read alike, the source gives them in different places.

Assays:
[1] = system: patients with central autonomic failure; conditions: cited from earlier work
[2] = system: nOH in MSA patients and non-MSA patients; conditions: cited from earlier work
[3] = system: adult patients with symptomatic nOH; conditions: prescribing information, black box warning; cited from earlier work

| Compound | Effect on blood pressure [1] | Effect against nOH ([2]; MSA patients) | Effect against nOH ([2]; non-MSA patients) | Main side effect [3] |
| --- | --- | --- | --- | --- |
| CNCC[C@@H](Oc1ccccc1C)c1ccccc1 [Atomoxetine] | increase blood pressure | ineffective | showing improvement | – |
| N[C@H](C(=O)O)[C@H](O)c1ccc(O)c(O)c1 [droxidopa, L-threo-3-4-dihydroxyphenylserine] | – | – | – | supine hypertension |
